Source: patent US4946995A, “Process for the production of thiocarbohydrazide” (Mobay Corporation, priority 1989, dated 1990)
Read-outs that look alike come from different tables or passages of the source.

Tests used:
[1] = solubility of HDTC in alcohols; assay type: physicochemical; settings: alcohols (methanol, ethanol and isopropanol)
Description: The HDTC may be made by any of the methods known to those in the art. One relatively simple method for producing HDTC in quantitative yields is to react carbon disulfide with hydrazine in a molar ratio of 1:2 in an alcohol at 0°-30° C. Appropriate alcohols include methanol, ethanol and isopropanol. […] If hydrazine hydrate is used to produce the HDTC, the water present in the alcohol upon completion of the reaction may be removed by distillation.

[2] = footnote of Table 2, cited from earlier work

| SMILES | solubility in alcohols [1] | pKb ([2]; pKb) | pKb ([2]; second printed pKb) |
| --- | --- | --- | --- |
| NNC(=S)S [HDTC, Hydrazinium-dithiocarbazinate] | virtually insoluble |  |  |
| C1CN2CCN1CC2 [DABCO, diazabicyclooctane] |  | 3.0 | 8.7 |
| CCN(CC)CC [TEA, triethylamine] |  | 3.35 |  |
| CN(C)c1ccncc1 [DMAP, dimethylaminopyridine] |  | 4.3 |  |
